Measured values as given in patent publication US10426755B2, “Methods for inhibiting cancer cells” (Chang Gung Memorial Hospital, Chiayi, priority 2015, dated 2019).
Entries after “also recorded” stand apart in the source; their conditions may differ.

What was measured:
Type in all cases: cell-based
[1] = test system: colorectal cancer cells (chemotherapy resistant HCT116); experiment: Cell invasion assay (transwell, Matrigel), colorectal cancer cells; conditions: 5 or 10 μM DT, 3 days, vs control vehicle; FIG. 13 (a)
Protocol: An in vitro evaluation of the effect of DT on lung cancer cells (A549 and chemotherapy resistant/metastatic H460), prostate cancer cells (metastatic DU145) and colorectal cancer cells (chemotherapy resistant HCT116) invasion and migration was performed, using cell invasion assay and cell migration assay.
(§1) Cell Invasion Assay: cells of interest were treated with a control vehicle, 5 or 10 μM of DT and incubated for 3 days. 1×10^5 cells were placed into the upper chamber of transwell plates (8 μm) with membranes pre-coated with 20% Matrigel and the bottom chamber contained 600 μL media supplemented with 10% fetal bovine serum (FBS). The cells migrated to the bottom of the chamber were fixed, stained and counted.

[2] = test system: γ-H2AX, phosphorylated-ATM, phosphorylated-p53, PUMA, BAX, caspase-3, caspase-9 and PARP in LNCaP and DU145 prostate cancer cells; experiment: Western blot of cell damage and cell death proteins, prostate cancer cells; conditions: various concentrations of DT, 6 to 24 hours, vs control vehicle; dose and time dependent; FIG. 9 (a)-(g)
Protocol: (§2) An in vitro evaluation on the damage effect of DT on cancer cells was performed, using prostate cancer cells (metastatic LNCaP and metastatic DU145, hormone therapy resistant and metastatic PC3 and 22RV1) and lung cancer cells (A549 and chemotherapy-resistant/metastatic H460).
(§3) Cancer cells were treated with a control vehicle, dihydrotestosterone (DHT), and various concentrations of DT between 6 to 24 hours. Cellular extracts of treated cancer cells were analyzed using Western Blot.

[3] = test system: CCL2 in RAW264.7 macrophages; experiment: CCL2 ELISA of culture medium, RAW264.7 macrophages; conditions: 5 or 10 μM DT, 24 hours, vs DMSO, FIG. 14 (a)
Protocol: (§4) It has been reported that increased CCL2 expression enhances cancer cell metastasis via macrophage recruitment. The effect of DT on CCL2 expression in RAW264.7 macrophages, THP1 monocytes and prostate cancer cells (metastatic DU145 and hormone therapy resistant and metastatic PC3) was examined by treating the cells with DMSO (control), 5 or 10 μM DT for 24 hours.
(§5) The culture medium was collected and the concentration of CCL2 was measured using ELISA assay.

[4] = test system: prostate cancer cell lines (LNCaP, hormone therapy-resistant PC3, DU145 and 22RV1); experiment: XTT proliferation assay, prostate cancer cells; conditions: 1, 5 and 10 μM DT, 1-2 days, XTT absorbance 492 nm; FIG. 1
Protocol: An in vitro evaluation of the effect of dihydroisotanshinone I (DT) on the following prostate cancer cell lines was performed: LNCaP (with lymph node metastasis), hormone therapy resistant PC3 (with bone metastasis), 22RV1, DU145 (with brain metastasis), were obtained from Bioresource Collection and Research Center, Taiwan and DT was purchased from ChemFaces Co., Ltd., China.
The prostate cancer cells were plated at a density of 10^3 or 3×10^3 per well, in a 96-well plate, in a medium containing 10% Fetal bovine serum (FBS) (Gibco®, commercially available from Life Technologies, USA). Once the prostate cancer cells were attached to the culture dish, the 10% FBS medium was replaced with a second 10% FBS medium and each of the prostate cancer cell line was treated with 1, 5, and 10 μM of DT respectively for 1-2 days. The absorbance was measured using XTT assay kit (commercially available from Roche, Switzerland) at 492 nm using an ELISA reader (Bio-Rad Laboratories, USA).

[5] = test system: skp2, MMP2, MMP9 in DU145, PC3 and 22RV1 prostate cancer cells; experiment: skp2 and downstream gene mRNA expression, prostate cancer cells; conditions: various concentrations of DT vs DMSO; PC3, DU145, 22RV1; FIG. 9 (h)-(l)
Protocol: (§6) It has been reported that skp2 plays an important role in the metastasis of cancer cells. An in vitro evaluation of the effect of DT on prostate cancer cell metastasis was performed, by measuring the mRNA expression of skp2 in the following prostate cancer cell lines: meatstatic DU145 cells (Panels i-j of FIG. 9), hormone therapy resistant and metastatic PC3 cells (Panel h of FIG. 9), and 22RV1 cells (Panels k-l of FIG. 9), A549 lung cancer cells (Panels (c)-(e) of FIG. 10), chemotherapy-resistant/metastatic H460 lung cancer cells (Panels (d) and (f) of FIG. 10), HCT116 colon cancer cells (Panels (g) and (i) of FIG. 10) and MCF7-tamoxifen resistant breast cancer cells (Panels (h) and (j) of FIG. 10) […].
(§7) The cancer cells were treated with DMSO and various concentrations of DT.

[6] = test system: CCL2 in hormone therapy resistant and metastatic PC3 prostate cancer cells; experiment: CCL2 ELISA of culture medium, PC3; conditions: 5 or 10 μM DT, 24 hours, vs DMSO, FIG. 14 (d)
Protocol: as §4, §5

[7] = test system: γ-H2AX and phosphorylated-ATM in A549 and chemotherapy-resistant/metastatic H460 lung cancer cells; experiment: Western blot of DNA damage response proteins, lung cancer cells; conditions: various concentrations of DT, vs control vehicle; dose dependent; FIG. 10 (a)-(b)
Protocol: as §2, §3

[8] = test system: skp2 and downstream genes in MCF7-tamoxifen resistant breast cancer cells; experiment: skp2 and downstream gene mRNA expression, tamoxifen resistant breast cancer cells; conditions: various concentrations of DT vs DMSO, FIG. 10 (h), (j)
Protocol: as §6, §7

[9] = test system: CCL2 in THP1 monocytes; experiment: CCL2 ELISA of culture medium, THP1 monocytes; conditions: 5 or 10 μM DT, 24 hours, vs DMSO, FIG. 14 (b)
Protocol: as §4, §5

[10] = test system: prostate cancer cells (PC3, DU145 and 22RV1); experiment: Prostate cancer cell invasion assay with DT-treated conditioned media; conditions: 5-10 μM DT, 24 hours, results not shown
Protocol: as §1
As illustrated in Example 10, the production of CCL2 was inhibited by DT in both prostate cancer cells and macrophage, the effect of DT on monocyte/cancer cell co-culture and macrophage/cancer cell co-culture was examined using the invasion assay described in Example 9. • (a) THP1 monocytes, Raw264.7 macrophage, monocyte/prostate cancer co-culture and macrophage/prostate cancer co-culture were treated with a vehicle (DMSO), 5 or 10 μM DT for 24 hours, the cultured medium was collected and placed into the lower chamber of a transwell plate. • (b) Prostate cancer cells (PC3, DU145 and 22RV1) were placed in the cell invasion assay). The level of CCL2 in the invasion assay was measured by ELIZA method.

For `Cc1cccc2c3c(ccc12)C(=O)C1=C(OCC1C)C3=O` (stereo not drawn) [DT, dihydroisotanshinone I], the “colorectal cancer cell motility (invasion assay)” value [1] was “reduced the motility of chemotherapy resistant colorectal cancer cells; also recorded: reduced the motility of colon cancer cells”, the “DNA damage response proteins (γ-H2AX and phosphorylated-ATM), prostate cancer cells” value [2] was “increased” and the “cell cycle regulatory protein (phosphorylated-p53), prostate cancer cells” value [2] was “increased”. For the same compound, the “cell program death proteins (PUMA, BAX, caspase-3, caspase-9 and PARP), prostate cancer cells” value [2] was “increased”, the “production of CCL2 in macrophages” value [3] was “effectively inhibit the production of CCL2” and the “inhibition of prostate cancer cell proliferation” value [4] was “inhibits prostate cancer cell proliferation in a dose dependent fashion”. For the same compound, the “mRNA expression of skp2 and its downstream genes, prostate cancer” value [5] was “effectively inhibit mRNA expression of skp2 and its downstream genes; also recorded: reduced skps and its downstream genes, MMP2 and MMP9”, the “production of CCL2 in PC3 prostate cancer cells” value [6] was “effectively inhibit the production of CCL2” and the “DNA damage response proteins (γ-H2AX and phosphorylated-ATM), lung cancer cells” value [7] was “increase in DNA damage response proteins (γ-H2AX and phosphorylated-ATM); also recorded: increased the DNA damage response proteins (γ-H2AX, phosphorylated-ATM)”. The “mRNA expression of skp2 and its downstream genes, target therapy resistant breast cancer” value [8] was “effectively inhibit mRNA expression of skp2 and its downstream genes; also recorded: reduces skps and its downstream genes, MMP2, MMP9 and E-cadherin”, the “production of CCL2 in THP1 monocytes” value [9] was “effectively inhibit the production of CCL2” and the “migration of prostate cancer cells” value ([10]; DT-treated macrophage medium) was “significantly inhibit the migration of prostate cancer cells in a dose-dependent manner”. For the same compound, the “migration of prostate cancer cells” value ([10]; DT-treated macrophage/prostate cancer co-culture medium) was “significantly inhibit the migration of prostate cancer cells in a dose-dependent manner”, the “migration of prostate cancer cells” value ([10]; DT-treated monocyte medium) was “significantly inhibit the migration of prostate cancer cells in a dose-dependent manner” and the “migration of prostate cancer cells” value ([10]; DT-treated monocyte/prostate cancer co-culture medium) was “significantly inhibit the migration of prostate cancer cells in a dose-dependent manner”.
